In PubChem BioAssay (NCI):
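Growth conditions: 96-well plates. Treatment: test compound, 48 hours, 5 concentrations. Analysis: linear interpolation between bracketing concentrations; unreached endpoints set to highest concentration. Abbreviation: GI50, concentration required for 50% inhibition of growth. TGI marks complete inhibition of growth.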

Key:
Experiment in all cases: DTP human tumour cell line panel, 48 h
LOX IMVI melanoma = test system: LOX IMVI melanoma
ACHN renal = test system: ACHN renal
MALME-3M melanoma = test system: MALME-3M melanoma
OVCAR-3 ovarian = test system: OVCAR-3 ovarian
HCT-15 colon = test system: HCT-15 colon
HOP-62 NSCLC = test system: HOP-62 NSCLC
DLD-1 colon = test system: DLD-1 colon
KM20L2 colon = test system: KM20L2 colon
OVCAR-8 ovarian = test system: OVCAR-8 ovarian
COLO 205 colon = test system: COLO 205 colon
NCI-H460 lung = test system: NCI-H460 lung
SK-MEL-28 melanoma = test system: SK-MEL-28 melanoma
CAKI-1 renal = test system: CAKI-1 renal
XF 498 CNS = test system: XF 498 CNS
NCI-H226 lung = test system: NCI-H226 lung
TK-10 renal = test system: TK-10 renal
SF-295 CNS = test system: SF-295 CNS
HOP-92 NSCLC = test system: HOP-92 NSCLC
HCT-116 colon = test system: HCT-116 colon
UO-31 renal = test system: UO-31 renal
NCI-H23 lung = test system: NCI-H23 lung
M14 melanoma = test system: M14 melanoma
UACC-62 melanoma = test system: UACC-62 melanoma
KM12 colon = test system: KM12 colon
NCI-H522 lung = test system: NCI-H522 lung
LXFL 529 NSCLC = test system: LXFL 529 NSCLC
SNB-19 CNS = test system: SNB-19 CNS
RXF 393 renal = test system: RXF 393 renal
HL-60(TB) leukemia = test system: HL-60(TB) leukemia
SK-MEL-2 melanoma = test system: SK-MEL-2 melanoma
SN12C renal = test system: SN12C renal
HCC-2998 colon = test system: HCC-2998 colon
U251 CNS = test system: U251 CNS
IGROV1 ovarian = test system: IGROV1 ovarian
SW-620 colon = test system: SW-620 colon
DMS 114 small cell lung = test system: DMS 114 small cell lung
A549 NSCLC = test system: A549 NSCLC
SR leukemia = test system: SR leukemia
A498 renal = test system: A498 renal
UACC-257 melanoma = test system: UACC-257 melanoma
SNB-75 CNS = test system: SNB-75 CNS
DMS 273 small cell lung = test system: DMS 273 small cell lung
CCRF-CEM leukemia = test system: CCRF-CEM leukemia
HT29 colon = test system: HT29 colon
SNB-78 CNS = test system: SNB-78 CNS
EKVX NSCLC = test system: EKVX NSCLC
SK-OV-3 ovarian = test system: SK-OV-3 ovarian
RPMI-8226 leukemia = test system: RPMI-8226 leukemia
786-0 renal = test system: 786-0 renal
K-562 leukemia = test system: K-562 leukemia
MOLT-4 leukemia = test system: MOLT-4 leukemia
OVCAR-4 ovarian = test system: OVCAR-4 ovarian
SF-539 CNS = test system: SF-539 CNS
SK-MEL-5 melanoma = test system: SK-MEL-5 melanoma
M19-MEL melanoma = test system: M19-MEL melanoma

CCC[CH2][Sn]1([CH2]CCC)[O]C(=O)c2cccnc2[S]1
GI50 (LOX IMVI melanoma): 1.76 µM
TGI (LOX IMVI melanoma): 3.6 µM
GI50 (ACHN renal): 3.51 µM
TGI (ACHN renal): 11.7 µM
GI50 (MALME-3M melanoma): 1.49 µM
TGI (MALME-3M melanoma): 4.31 µM
GI50 (OVCAR-3 ovarian): 3.49 µM
TGI (OVCAR-3 ovarian): 12.5 µM
GI50 (HCT-15 colon): 2.21 µM
TGI (HCT-15 colon): 4.98 µM
GI50 (HOP-62 NSCLC): 28.9 µM
TGI (HOP-62 NSCLC): 43.7 µM
GI50 (DLD-1 colon): 3.94 µM
TGI (DLD-1 colon): 14.5 µM
GI50 (KM20L2 colon): 7.72 µM
TGI (KM20L2 colon): 21 µM
GI50 (OVCAR-8 ovarian): 4.04 µM
TGI (OVCAR-8 ovarian): 14.5 µM
GI50 (COLO 205 colon): 3.34 µM
TGI (COLO 205 colon): 9.33 µM
GI50 (NCI-H460 lung): 11.4 µM
TGI (NCI-H460 lung): 23.6 µM
GI50 (SK-MEL-28 melanoma): 2.7 µM
TGI (SK-MEL-28 melanoma): 10.6 µM
GI50 (CAKI-1 renal): 1.76 µM
TGI (CAKI-1 renal): 8.05 µM
GI50 (XF 498 CNS): 2 µM
TGI (XF 498 CNS): 3.5 µM
GI50 (NCI-H226 lung): 15.3 µM
TGI (NCI-H226 lung): 29.1 µM
GI50 (TK-10 renal): 3.71 µM
TGI (TK-10 renal): 12.1 µM
GI50 (SF-295 CNS): 3.19 µM
TGI (SF-295 CNS): 12 µM
GI50 (HOP-92 NSCLC): 3.37 µM
TGI (HOP-92 NSCLC): 12.1 µM
GI50 (HCT-116 colon): 5.56 µM
TGI (HCT-116 colon): 17.9 µM
GI50 (UO-31 renal): 8.59 µM
TGI (UO-31 renal): 20.9 µM
GI50 (NCI-H23 lung): 2.13 µM
TGI (NCI-H23 lung): 5.41 µM
GI50 (M14 melanoma): 3.22 µM
TGI (M14 melanoma): 10.1 µM
GI50 (UACC-62 melanoma): 1.87 µM
TGI (UACC-62 melanoma): 5.53 µM
GI50 (KM12 colon): 6.92 µM
TGI (KM12 colon): 19.6 µM
GI50 (NCI-H522 lung): 0.348 µM
TGI (NCI-H522 lung): 1.57 µM
GI50 (LXFL 529 NSCLC): 1.33 µM
TGI (LXFL 529 NSCLC): 2.98 µM
GI50 (SNB-19 CNS): 6.88 µM
TGI (SNB-19 CNS): 19.5 µM
GI50 (RXF 393 renal): 1.66 µM
TGI (RXF 393 renal): 3.2 µM
GI50 (HL-60(TB) leukemia): 1.42 µM
TGI (HL-60(TB) leukemia): 3.31 µM
GI50 (SK-MEL-2 melanoma): 2.11 µM
TGI (SK-MEL-2 melanoma): 4.63 µM
GI50 (SN12C renal): 3.8 µM
TGI (SN12C renal): 13.2 µM
GI50 (HCC-2998 colon): 2.39 µM
TGI (HCC-2998 colon): 6.15 µM
GI50 (U251 CNS): 1.21 µM
TGI (U251 CNS): 5.33 µM
GI50 (IGROV1 ovarian): 11.2 µM
TGI (IGROV1 ovarian): 23.5 µM
GI50 (SW-620 colon): 1.88 µM
TGI (SW-620 colon): 4.31 µM
GI50 (DMS 114 small cell lung): 1.64 µM
TGI (DMS 114 small cell lung): 3.83 µM
GI50 (A549 NSCLC): 16.8 µM
TGI (A549 NSCLC): 31.6 µM
GI50 (SR leukemia): 1.4 µM
TGI (SR leukemia): 5.65 µM
GI50 (A498 renal): 2.37 µM
TGI (A498 renal): 5.3 µM
GI50 (UACC-257 melanoma): 2.64 µM
TGI (UACC-257 melanoma): 6.97 µM
GI50 (SNB-75 CNS): 2.54 µM
TGI (SNB-75 CNS): 7.82 µM
GI50 (DMS 273 small cell lung): 3.38 µM
TGI (DMS 273 small cell lung): 13.7 µM
GI50 (CCRF-CEM leukemia): 0.058 µM
TGI (CCRF-CEM leukemia): 1.02 µM
GI50 (HT29 colon): 11.1 µM
TGI (HT29 colon): 24.7 µM
GI50 (SNB-78 CNS): 1.88 µM
TGI (SNB-78 CNS): 5.76 µM
GI50 (EKVX NSCLC): 2.46 µM
TGI (EKVX NSCLC): 11.9 µM
GI50 (SK-OV-3 ovarian): 16.9 µM
TGI (SK-OV-3 ovarian): 31.4 µM
GI50 (RPMI-8226 leukemia): 1.48 µM
TGI (RPMI-8226 leukemia): 5.29 µM
GI50 (786-0 renal): 2.55 µM
TGI (786-0 renal): 6.8 µM
GI50 (K-562 leukemia): 1.65 µM
TGI (K-562 leukemia): 5.48 µM
GI50 (MOLT-4 leukemia): 1.87 µM
TGI (MOLT-4 leukemia): 7.71 µM
GI50 (OVCAR-4 ovarian): 10.1 µM
TGI (OVCAR-4 ovarian): 21.9 µM
GI50 (SF-539 CNS): 3.17 µM
TGI (SF-539 CNS): 8.39 µM
GI50 (SK-MEL-5 melanoma): 4.96 µM
TGI (SK-MEL-5 melanoma): 17 µM
GI50 (M19-MEL melanoma): 3.87 µM
TGI (M19-MEL melanoma): 15.4 µM
